# Laboratory results: patent US20240197728A1, “METHODS AND PHARMACEUTICAL COMPOSITIONS FOR TREATING REFRACTORY EPILEPSY” (INSERM (INSTITUT NATIONAL DE LA SANTÉ ET DE LA RECHERCHE …, priority 2021, published 2024)
# Key:
# [1] = target: T1, recombinant Flag-tagged KCC2 (Rattus norvegicus, UniProt Q63633); assay: Quantum dot-based single particle tracking of KCC2 membrane lateral diffusion; type: cell-based; details: vs DMSO
# T1 construct: expressed in transfected cells; host or cells: primary rat hippocampal neurons, transfected at DIV 13-14 with Transfectin
# T1 sequence (Q63633 1-1116 isoform Q63633-2): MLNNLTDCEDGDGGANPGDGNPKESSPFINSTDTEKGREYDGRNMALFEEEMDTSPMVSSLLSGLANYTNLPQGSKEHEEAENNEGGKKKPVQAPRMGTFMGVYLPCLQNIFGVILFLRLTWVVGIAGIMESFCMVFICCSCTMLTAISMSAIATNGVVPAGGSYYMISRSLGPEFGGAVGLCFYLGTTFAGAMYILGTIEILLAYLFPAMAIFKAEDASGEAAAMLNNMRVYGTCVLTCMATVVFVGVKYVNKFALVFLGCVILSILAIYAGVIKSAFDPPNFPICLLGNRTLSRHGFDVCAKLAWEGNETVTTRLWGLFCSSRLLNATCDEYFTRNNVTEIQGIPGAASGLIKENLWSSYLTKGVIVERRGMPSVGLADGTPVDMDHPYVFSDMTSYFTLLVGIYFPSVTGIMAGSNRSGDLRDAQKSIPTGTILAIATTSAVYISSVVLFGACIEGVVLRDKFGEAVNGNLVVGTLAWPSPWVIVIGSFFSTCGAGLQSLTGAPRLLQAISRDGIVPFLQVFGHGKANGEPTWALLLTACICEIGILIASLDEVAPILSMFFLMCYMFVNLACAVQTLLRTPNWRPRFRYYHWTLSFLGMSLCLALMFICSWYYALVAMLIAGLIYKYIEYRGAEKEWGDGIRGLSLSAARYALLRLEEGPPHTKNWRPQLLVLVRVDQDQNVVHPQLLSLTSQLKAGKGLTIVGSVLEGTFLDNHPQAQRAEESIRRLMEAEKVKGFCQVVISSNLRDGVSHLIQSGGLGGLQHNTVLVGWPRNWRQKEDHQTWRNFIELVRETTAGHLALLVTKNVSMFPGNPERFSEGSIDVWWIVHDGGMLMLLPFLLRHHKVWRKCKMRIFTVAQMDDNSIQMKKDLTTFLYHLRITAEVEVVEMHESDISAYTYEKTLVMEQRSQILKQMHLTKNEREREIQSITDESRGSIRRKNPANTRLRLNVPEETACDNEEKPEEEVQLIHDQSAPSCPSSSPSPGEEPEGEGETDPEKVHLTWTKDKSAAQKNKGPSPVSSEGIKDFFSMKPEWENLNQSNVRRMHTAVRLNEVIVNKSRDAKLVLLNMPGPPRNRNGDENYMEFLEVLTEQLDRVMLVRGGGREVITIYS
# Experimental: For all experiments on hippocampal cultures, neurons were pre-incubated for 2 hours with either DMSO, PCPZ or CLP257 in a CO2 incubator set at 37° C. Drugs were added directly to the culture medium. For electrophysiology experiments, neurons were also recorded in presence of these drugs in the bath. For biochemistry experiments on rat hippocampo-cortical slices, slices were incubated with either DMSO (vehicle), CLP257, PCPZ, WNK463 or sodium orthovanadate for 2 hours in interface chambers set at 37° C. For human tissue experiments, slices were pre-incubated with either DMSO, CLP257 or PCPZ for 2 hours in interface chambers set at 37° C. and then also recorded in presence of these compounds.
# For single-particle-tracking experiments, a previously described KCC2-Flag construct was used. […] All constructs were sequenced by Beckman Coulter Genomics (Hope End, Takeley, U.K). Neuronal transfections were performed at DIV 13-14 using Transfectin (BioRad), according to manufacturer's instructions (DNA:transfectin ratio 1 μg:3 μl), with 1-1.5 μg of plasmid DNA per 20 mm well. Experiments were performed 7-10 days post-transfection.
# Neurons were stained as previously described. Briefly, cells were incubated for 6 min at 37° C. with a mouse anti-Flag antibody (mouse, 1:300, Sigma-Aldrich), washed and incubated for 6 min at 37° C. with a biotinylated Fab goat anti-mouse antibody (1:300; Jackson Immuno Research) in imaging medium. After washes, cells were incubated for 1 min with streptavidin-coated quantum dots (QDs) emitting at 655 nm (1 nM; Invitrogen) supplemented with PBS ([…]; Invitrogen) and 10% Casein (v/v) (Sigma).
# Cells were imaged using an Olympus IX71 inverted microscope equipped with a 60× objective (NA 1.42; Olympus) and a 120 W Mercury lamp (X-Cite 120Q, Lumen Dynamics). QD real time recordings (integration time of 30 ms over 1200 consecutive frames) were acquired with an ImagEM EMCCD camera and MetaView software (Meta Imaging 7.7). Cells were imaged within 45 min following appropriate drugs pre-incubation.
# QD tracking and trajectory reconstruction were performed with homemade Matlab routines, as described. For each imaged neuron, one or two dendritic subregions were quantified. Mean square displacement (MSD) over time plots were calculated as described and diffusion coefficients (D) were calculated by fitting the first four points without origin of the MSD vs. time curves with the equation: MSD(nτ)=4Dnτ+b, where b is a constant reflecting the spot localization accuracy. The explored area of each trajectory was defined as the MSD value of the trajectory at two different time intervals of at 0.42 and 0.45 s.
# [2] = target: T2, recombinant human OSR1 (Homo sapiens, UniProt O95747); assay: Radiometric kinase profiling assay; type: biochemical; details: 70 μM ATP
# T2 construct: purchased Eurofins Discovery (KinaseProfiler, contractor)
# T2 sequence (O95747 whole entry): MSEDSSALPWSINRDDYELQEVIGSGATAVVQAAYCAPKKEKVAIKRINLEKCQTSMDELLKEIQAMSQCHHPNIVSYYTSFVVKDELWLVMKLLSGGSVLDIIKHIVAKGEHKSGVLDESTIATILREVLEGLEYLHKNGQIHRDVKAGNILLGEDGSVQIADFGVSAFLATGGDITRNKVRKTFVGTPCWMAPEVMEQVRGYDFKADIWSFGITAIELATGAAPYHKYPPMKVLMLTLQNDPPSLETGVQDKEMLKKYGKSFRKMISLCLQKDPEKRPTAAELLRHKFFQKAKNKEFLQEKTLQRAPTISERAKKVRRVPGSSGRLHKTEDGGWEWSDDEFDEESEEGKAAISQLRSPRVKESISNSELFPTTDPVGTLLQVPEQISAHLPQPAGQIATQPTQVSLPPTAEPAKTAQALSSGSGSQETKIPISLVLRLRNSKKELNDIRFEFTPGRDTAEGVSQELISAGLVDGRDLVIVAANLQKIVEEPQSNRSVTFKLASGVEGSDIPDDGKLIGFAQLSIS
# Experimental: (§1) Kinase activity profiles (data not shown) were performed using radiometric assays to measure kinase catalytic activity for PCPZ concentrations ranging 0.1-500 μM in DMSO or CLP257 concentrations ranging 0.1-1000 μM in DMSO, in the presence of 70 μM ATP. Equimolar DMSO concentrations were used as control. Additional information on the kinase profiler assay can be obtained from the contractor's website. (https://www.eurofinsdiscoveryservices.com/cms/cms-content/services/in-vitro-assays/kinases/kinase-profiler).
# [3] = target: T3, recombinant human WNK1 (Homo sapiens, UniProt Q9H4A3); assay: Radiometric kinase profiling assay; type: biochemical; details: 70 μM ATP
# T3 construct: purchased Eurofins Discovery (KinaseProfiler, contractor)
# T3 sequence (Q9H4A3 whole entry): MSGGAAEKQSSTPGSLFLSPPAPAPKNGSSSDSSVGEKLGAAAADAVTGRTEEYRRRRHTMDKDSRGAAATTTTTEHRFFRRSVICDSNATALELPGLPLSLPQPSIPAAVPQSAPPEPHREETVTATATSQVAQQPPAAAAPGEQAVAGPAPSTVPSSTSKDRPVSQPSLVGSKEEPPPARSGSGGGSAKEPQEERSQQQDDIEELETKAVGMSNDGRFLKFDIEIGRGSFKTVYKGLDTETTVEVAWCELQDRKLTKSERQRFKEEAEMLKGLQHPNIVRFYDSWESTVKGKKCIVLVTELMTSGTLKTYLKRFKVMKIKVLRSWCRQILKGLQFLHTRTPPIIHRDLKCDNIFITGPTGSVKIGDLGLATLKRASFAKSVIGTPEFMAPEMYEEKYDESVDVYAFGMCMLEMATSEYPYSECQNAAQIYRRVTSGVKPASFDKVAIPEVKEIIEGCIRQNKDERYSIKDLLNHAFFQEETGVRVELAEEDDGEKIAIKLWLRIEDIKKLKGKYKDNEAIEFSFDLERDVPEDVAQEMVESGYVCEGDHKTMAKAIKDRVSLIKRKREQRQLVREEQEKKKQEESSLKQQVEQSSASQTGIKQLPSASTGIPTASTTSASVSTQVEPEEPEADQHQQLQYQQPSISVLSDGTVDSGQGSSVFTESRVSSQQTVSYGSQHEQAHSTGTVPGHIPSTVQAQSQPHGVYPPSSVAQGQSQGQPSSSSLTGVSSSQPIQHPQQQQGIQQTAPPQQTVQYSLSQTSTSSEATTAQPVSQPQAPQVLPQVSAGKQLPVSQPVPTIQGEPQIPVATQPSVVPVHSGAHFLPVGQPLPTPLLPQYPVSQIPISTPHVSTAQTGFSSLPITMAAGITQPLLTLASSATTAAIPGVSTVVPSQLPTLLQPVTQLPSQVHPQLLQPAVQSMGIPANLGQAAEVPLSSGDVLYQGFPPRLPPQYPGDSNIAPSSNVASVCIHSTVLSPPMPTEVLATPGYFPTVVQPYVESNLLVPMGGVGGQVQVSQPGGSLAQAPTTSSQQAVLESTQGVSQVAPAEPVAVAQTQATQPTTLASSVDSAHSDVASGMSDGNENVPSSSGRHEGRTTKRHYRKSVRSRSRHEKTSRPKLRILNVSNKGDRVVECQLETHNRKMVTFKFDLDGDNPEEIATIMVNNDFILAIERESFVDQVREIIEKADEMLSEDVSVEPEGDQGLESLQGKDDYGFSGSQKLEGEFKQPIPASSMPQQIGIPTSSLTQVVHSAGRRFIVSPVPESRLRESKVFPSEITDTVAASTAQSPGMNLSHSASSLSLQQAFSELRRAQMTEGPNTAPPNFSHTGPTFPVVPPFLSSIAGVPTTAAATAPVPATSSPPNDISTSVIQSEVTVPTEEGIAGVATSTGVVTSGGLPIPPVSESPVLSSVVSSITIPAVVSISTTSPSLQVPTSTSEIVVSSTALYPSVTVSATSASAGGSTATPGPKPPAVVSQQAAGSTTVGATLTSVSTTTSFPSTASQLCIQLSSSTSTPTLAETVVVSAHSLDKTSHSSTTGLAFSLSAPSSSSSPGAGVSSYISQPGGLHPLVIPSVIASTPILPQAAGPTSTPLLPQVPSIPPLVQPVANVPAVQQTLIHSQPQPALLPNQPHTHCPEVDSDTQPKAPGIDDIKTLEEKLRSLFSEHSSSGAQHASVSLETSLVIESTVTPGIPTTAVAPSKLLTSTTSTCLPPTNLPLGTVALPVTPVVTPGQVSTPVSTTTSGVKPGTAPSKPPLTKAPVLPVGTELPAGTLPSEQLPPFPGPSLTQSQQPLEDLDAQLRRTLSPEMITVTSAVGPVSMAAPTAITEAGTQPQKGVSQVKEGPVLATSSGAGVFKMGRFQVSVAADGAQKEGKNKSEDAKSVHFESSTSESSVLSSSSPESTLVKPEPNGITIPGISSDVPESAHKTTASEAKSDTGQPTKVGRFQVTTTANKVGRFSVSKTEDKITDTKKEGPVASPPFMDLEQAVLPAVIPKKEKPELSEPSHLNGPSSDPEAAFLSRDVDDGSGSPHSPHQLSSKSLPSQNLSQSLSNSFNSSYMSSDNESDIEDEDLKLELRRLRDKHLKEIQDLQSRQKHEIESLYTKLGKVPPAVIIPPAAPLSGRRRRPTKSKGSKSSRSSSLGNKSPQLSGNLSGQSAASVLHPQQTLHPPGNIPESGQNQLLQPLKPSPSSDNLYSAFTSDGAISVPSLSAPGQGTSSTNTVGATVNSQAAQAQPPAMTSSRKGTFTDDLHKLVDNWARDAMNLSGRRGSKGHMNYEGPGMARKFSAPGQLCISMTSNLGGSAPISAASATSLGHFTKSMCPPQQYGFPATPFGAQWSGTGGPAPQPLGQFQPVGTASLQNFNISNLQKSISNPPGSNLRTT
# Experimental: as §1
"change of KCC2 diffusion coefficient, extrasynaptic ([1]; 10 μM PCPZ, 2 h) [%]","change of KCC2 diffusion coefficient, synaptic ([1]; 10 μM PCPZ, 2 h) [%]","change of KCC2 explored area, extrasynaptic ([1]; 10 μM PCPZ, 2 h) [%]","change of KCC2 explored area, synaptic ([1]; 10 μM PCPZ, 2 h) [%]",inhibition of OSR1 kinase activity ([2]; PCPZ 0.1-500 μM),inhibition of WNK1 kinase activity ([3]; PCPZ 0.1-500 μM),"change of KCC2 diffusion coefficient, extrasynaptic ([1]; 100 μM CLP257, 2 h) [%]","change of KCC2 diffusion coefficient, synaptic ([1]; 100 μM CLP257, 2 h)","change of KCC2 explored area, extrasynaptic ([1]; 100 μM CLP257, 2 h) [%]","change of KCC2 explored area, synaptic ([1]; 100 μM CLP257, 2 h)",inhibition of OSR1 kinase activity ([2]; CLP257 0.1-1000 μM),inhibition of WNK1 kinase activity ([3]; CLP257 0.1-1000 μM),Structure (SMILES)
−36.54±14.91,−26.22±14.00,−39.70±17.18,−30.632±25.44,no direct inhibitory effect,no direct inhibitory effect,–,–,–,–,–,–,"CN1CCN(CCCN2c3ccccc3Sc3ccc(Cl)cc32)CC1 [PCPZ, prochlorperazine]"
–,–,–,–,–,–,−20.74±4.85,+9.39±11.21%,−25.14±2.73,+4.93±19.40%,no direct inhibitory effect,no direct inhibitory effect,"O=C1N=C(N2CCCCN2)S/C1=C\c1ccc(F)cc1O [CLP257, (5Z)-5-[(4-Fluoro-2-hydroxyphenyl)methylene]-2-(tetrahydro-1-(2H)-pyridazinyl)-4(5H)-thiazolone]"
